Measurements published in patent US10981932B2, “Macrocyclic indole derivatives” (Bayer Aktiengesellschaft, priority 2016, dated 2021).
Where a name gives a salt, the structure may show the parent alone. Read-outs that look alike come from different tables or passages of the source. Values belong to the compound of their own block, whether it stands above or below them.

Legend:
SUDHL5 [1] = assay: Induction of cytotoxicity (CellTiter-Glo, 5 h), SUDHL5
A2780 = assay: Anti-proliferative effect (CellTiter-Glo, 72 h), A2780; assay type: cell-based; conditions: A2780 cells, median, read-out: IC50 antiproliferation assay A2780 [M] (median)
Summary of the method: (§1)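 Plate cells alongside a separate day 0 reference plate. Read the reference plate at once with CellTiter-Glo. Incubate treated cells 72 h at 37 °C, then read them the same way by luminescence.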

SUDHL10 [2] = assay: Anti-proliferative effect (CellTiter-Glo, 72 h), SUDHL10; assay type: cell-based; conditions: SUDHL10 cells, antiproliferation, median, read-out: Antiproli SUDHL10 [M] (median)
Summary of the method: as §1

SUDHL10 [3] = assay: Induction of cytotoxicity (CellTiter-Glo, 5 h), SUDHL10
SUDHL10 [4] = assay: Induction of caspase-3/7 activity (Caspase-Glo 3/7), SUDHL10; assay type: cell-based; conditions: caspase-3/7 induction, SUDHL10 cells, 3 h treatment, median
Summary of the method: (§2)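 A 3 h, 37 °C compound incubation precedes the Caspase-Glo 3/7 read. After subtracting medium-only signal, EC50s are fitted against the reference compound's maximal caspase induction.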

SUDHL5 [5] = assay: Anti-proliferative effect (CellTiter-Glo, 72 h), SUDHL5; assay type: cell-based; conditions: SUDHL5 cells, antiproliferation, median, read-out: Antiproli SUDHL5 [M] (median)
Summary of the method: as §1

SUDHL5 [6] = assay: Induction of caspase-3/7 activity (Caspase-Glo 3/7), SUDHL5; assay type: cell-based; conditions: caspase-3/7 induction, SUDHL5 cells, 3 h treatment, median
Summary of the method: as §2

MCL-1 = MCL-1 (Homo sapiens, UniProt Q07820); assay: Protein-protein interaction assay MCL-1/Noxa BH3 peptide (MCL-1 assay), TR-FRET; assay type: binding; conditions: MBP-MCL-1 / Noxa BH3-derived peptide, median
Summary of the method: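 Steady-state competition, MCL-1/Noxa BH3, TR-FRET readout; 1 nM MBP-MCL-1, 11-point dose series 0.1 nM–20 μM; overnight 4 °C equilibration; 4-parameter IC50.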

[7] = Homo sapiens, SU-DHL-5, 5 h, read-out: Cytotox SUDHL5 [M] (median), SUDHL5 cells, cytotoxicity induction, CellTiter-Glo, 5 h incubation, median
[8] = Homo sapiens, SU-DHL10, 72 h, 72 h incubation
[9] = Homo sapiens, SU-DHL10, 5 h, read-out: Cytotox SUDHL10 [M] (median), SUDHL10 cells, cytotoxicity induction, CellTiter-Glo, 5 h incubation, median
[10] = Homo sapiens, SU-DHL-5, 72 h, 72 h incubation
[11] = Homo sapiens, SU-DHL-5, 5 h, read-out: Cytotox SUDHL5 [M] (median), SUDHL5 cells, cytotoxicity induction, CellTiter-Glo, 5 h, median
[12] = Homo sapiens, SU-DHL10, 72 h, 72 h
[13] = Homo sapiens, SU-DHL10, 5 h, read-out: Cytotox SUDHL10 [M] (median), SUDHL10 cells, cytotoxicity induction, CellTiter-Glo, 5 h, median
[14] = Homo sapiens, SU-DHL-5, 72 h, 72 h
[15] = read-out: Cytotox SUDHL5 [M] (median), SUDHL5 cells, cytotoxicity induction, CellTiter-Glo, 5 h incubation, median
[16] = read-out: Cytotox SUDHL10 [M] (median), SUDHL10 cells, cytotoxicity induction, CellTiter-Glo, 5 h incubation, median

Sequence of MCL-1 (Q07820 whole entry): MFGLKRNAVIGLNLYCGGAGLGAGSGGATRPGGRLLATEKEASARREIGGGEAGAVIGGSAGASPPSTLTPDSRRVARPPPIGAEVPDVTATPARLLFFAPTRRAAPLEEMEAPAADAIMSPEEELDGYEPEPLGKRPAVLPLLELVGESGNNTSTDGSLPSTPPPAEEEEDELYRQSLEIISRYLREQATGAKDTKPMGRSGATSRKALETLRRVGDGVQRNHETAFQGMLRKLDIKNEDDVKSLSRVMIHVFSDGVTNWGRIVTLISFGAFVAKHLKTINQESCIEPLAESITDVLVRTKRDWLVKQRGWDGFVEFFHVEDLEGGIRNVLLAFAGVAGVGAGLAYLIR

Structure (SMILES): Cn1nc2c(c1CN1CCOCC1)-c1cccc3c(CCCOc4cccc5ccccc45)c(C(=O)O)n(c13)CCOCCOC2 (racemic) [Example 087]
IC50 (SUDHL5 [1]; [7]): > 3.3e-05 M
IC50 (A2780; Homo sapiens, A2780, 72 h): > 3.3e-05 M
IC50 (SUDHL10 [2]; [8]): 1.41e-05 M
IC50 (SUDHL10 [3]; [9]): > 3.3e-05 M
EC50 (SUDHL10 [4]; Homo sapiens, SU-DHL10, 3 h): > 33 µM
IC50 (SUDHL5 [5]; [10]): > 3.3e-05 M
EC50 (SUDHL5 [6]; Homo sapiens, SU-DHL-5, 3 h): > 33 µM
IC50 (MCL-1): 0.097 µM

Structure (SMILES): CN(C)Cc1nn(C)c2c1-c1cccc3c(CCCOc4cccc5ccccc45)c(C(=O)O)n(c13)CCCCOC2 (racemic) [Example 331, (rac)-3-[(dimethylamino)methyl]-1-methyl-7-[3-(naphthalen-1-yloxy)propyl]-1,10,11,12,13,15-hexahydropyrazolo[4′,3′:9,10][1,6]oxazacycloundecino[8,7,6-hi]indole-8-carboxylic Acid]
IC50 (SUDHL5 [1]; [11]): > 3.3e-05 M
IC50 (A2780; Homo sapiens, A2780, 72 h): > 3.3e-05 M
IC50 (SUDHL10 [2]; [12]): > 3.3e-05 M
IC50 (SUDHL10 [3]; [13]): > 3.3e-05 M
EC50 (SUDHL10 [4]; Homo sapiens, SU-DHL10, 3 h): > 33 µM
IC50 (SUDHL5 [5]; [14]): > 3.3e-05 M
EC50 (SUDHL5 [6]; Homo sapiens, SU-DHL-5, 3 h): > 33 µM
IC50 (MCL-1): 0.185 µM

Structure (SMILES): COCc1nn(C)c2c1-c1cccc3c(CCCOc4cccc5ccccc45)c(C(=O)O)n(c13)CCCCN(C)C2 (single isomer, unassigned; enantiomer 2) [Example 185, 3-(methoxymethyl)-1,14-dimethyl-7-[3-(naphthalen-1-yloxy)propyl]-10,11,12,13,14,15-hexahydro-1H-pyrazolo[3′,4′:8,9][1,6]diazacycloundecino[10,11,1-hi]indole-8-carboxylic acid —N-ethylethanamine Salt (Enantiomer 2)]
IC50 (SUDHL5 [1]; [15]): 2.75e-05 M
IC50 (A2780): 1.88e-05 M
IC50 (SUDHL10 [2]; 72 h incubation): 8.53e-06 M
IC50 (SUDHL10 [3]; [16]): > 3.3e-05 M
EC50 (SUDHL10 [4]): > 33 µM
IC50 (SUDHL5 [5]; 72 h incubation): 1.98e-05 M
EC50 (SUDHL5 [6]): > 33 µM
IC50 (MCL-1): 0.211 µM

Structure (SMILES): Cc1nn(C)c2c1-c1cccc3c(CCCOc4cccc5cc(F)ccc45)c(C(=O)O)n(c13)CCCCOC2 (single isomer, unassigned; enantiomer 2) [Example 020, 7-{3-[(6-fluoronaphthalen-1-yl)oxy]propyl}-1,3-dimethyl-1,10,11,12,13,15-hexahydropyrazolo[4′,3′:9,10][1,6]oxazacycloundecino[8,7,6-hi]indole-8-carboxylic Acid-N-ethylethanamine Salt (Enantiomer 2)]
IC50 (SUDHL5 [1]; [15]): 2.31e-05 M
IC50 (A2780): 1.37e-05 M
IC50 (SUDHL10 [2]; 72 h incubation): 6.75e-06 M
IC50 (SUDHL10 [3]; [16]): > 3.3e-05 M
EC50 (SUDHL10 [4]): > 33 µM
IC50 (SUDHL5 [5]; 72 h incubation): 1.72e-05 M
EC50 (SUDHL5 [6]): > 33 µM
IC50 (MCL-1): 0.0646 µM

Structure (SMILES): Cn1nc(CN2CC(F)(F)C2)c2c1COCCCCn1c(C(=O)O)c(CCCOc3cccc4ccccc34)c3cccc-2c31 (single isomer, unassigned; enantiomer 2) [Example 182, 3-[(3,3-difluoroazetidin-1-yl)methyl]-1-methyl-7-[3-(naphthalen-1-yloxy)propyl]-1,10,11,12,13,15-hexahydropyrazolo[4′,3′:9,10][1,6]oxazacycloundecino[8,7,6-hi]indole-8-carboxylic acid-N-ethylethanamine Salt (Enantiomer 2)]
IC50 (SUDHL5 [1]; [15]): > 3.3e-05 M
IC50 (A2780): 1.75e-05 M
IC50 (SUDHL10 [2]; 72 h incubation): 6.02e-06 M
IC50 (SUDHL10 [3]; [16]): > 3.3e-05 M
EC50 (SUDHL10 [4]): > 33 µM
IC50 (SUDHL5 [5]; 72 h incubation): 1.91e-05 M
EC50 (SUDHL5 [6]): > 33 µM
IC50 (MCL-1): 0.122 µM

Structure (SMILES): Cn1nc(CN2CCCC2=O)c2c1COCCCCn1c(C(=O)O)c(CCCOc3cccc4ccccc34)c3cccc-2c31 (single isomer, unassigned; enantiomer 1) [Example 330, 1-methyl-7-[3-(naphthalen-1-yloxy)propyl]-3-[(2-oxopyrrolidin-1-yl)methyl]-1,10,11,12,13,15-hexahydropyrazolo[4′,3′:9,10][1,6]oxazacycloundecino[8,7,6-hi]indole-8-carboxylic Acid (Enantiomer 1)]
IC50 (SUDHL5 [1]; read-out: Cytotox SUDHL5 [M] (median), SUDHL5 cells, cytotoxicity induction, CellTiter-Glo, 5 h, median): > 3.3e-05 M
IC50 (A2780): > 3.3e-05 M
IC50 (SUDHL10 [2]; 72 h): 2.49e-05 M
IC50 (SUDHL10 [3]; read-out: Cytotox SUDHL10 [M] (median), SUDHL10 cells, cytotoxicity induction, CellTiter-Glo, 5 h, median): > 3.3e-05 M
EC50 (SUDHL10 [4]): > 33 µM
IC50 (SUDHL5 [5]; 72 h): > 3.3e-05 M
EC50 (SUDHL5 [6]): > 33 µM
IC50 (MCL-1): 0.153 µM

Structure (SMILES): COc1ccc2c(CCCOc3cccc4ccccc34)c(C(=O)O)n3c2c1-c1c(nn(C)c1C)COCCCC3 (racemic) [Example 349, (rac)-4-methoxy-2,3-dimethyl-7-[3-(naphthalen-1-yloxy)propyl]-2,10,11,12,13,15-hexahydropyrazolo[4′,3′:9,10][1,6]oxazacycloundecino[8,7,6-hi]indole-8-carboxylic Acid]
IC50 (SUDHL5 [1]; [11]): 2.43e-05 M
IC50 (A2780; Homo sapiens, A2780, 72 h): > 3.3e-05 M
IC50 (SUDHL10 [2]; [12]): 1.67e-05 M
IC50 (SUDHL10 [3]; [13]): > 3.3e-05 M
EC50 (SUDHL10 [4]; Homo sapiens, SU-DHL10, 3 h): > 33 µM
IC50 (SUDHL5 [5]; [14]): 1.86e-05 M
EC50 (SUDHL5 [6]; Homo sapiens, SU-DHL-5, 3 h): 31 µM
IC50 (MCL-1): 0.0819 µM

These reach a lower IC50 (MCL-1). Values come first.

IC50 (A2780; Homo sapiens, A2780, 72 h): > 3.3e-05 M
IC50 (SUDHL10 [2]; [12]): 1.9e-05 M
EC50 (SUDHL10 [4]; Homo sapiens, SU-DHL10, 3 h): > 33 µM
IC50 (SUDHL5 [5]; [14]): 3.15e-05 M
EC50 (SUDHL5 [6]; Homo sapiens, SU-DHL-5, 3 h): 25 µM
IC50 (MCL-1): 0.0451 µM
Structure (SMILES): CC(=O)N(C)Cc1nn(C)c2c1-c1cccc3c(CCCOc4cccc5ccccc45)c(C(=O)O)n(c13)CCCCOC2 (racemic) [Example 342, (rac)-3-{[acetyl(methyl)amino]methyl}-1-methyl-7-[3-(naphthalen-1-yloxy)propyl]-1,10,11,12,13,15-hexahydropyrazolo[4′,3′:9,10][1,6]oxazacycloundecino[8,7,6-hi]indole-8-carboxylic Acid]
IC50 (SUDHL5 [1]; [11]): > 3.3e-05 M
IC50 (SUDHL10 [3]; [13]): > 3.3e-05 M

IC50 (A2780; Homo sapiens, A2780, 72 h): 2.84e-05 M
IC50 (SUDHL10 [2]; [8]): 5.15e-06 M
EC50 (SUDHL10 [4]; Homo sapiens, SU-DHL10, 3 h): > 33 µM
IC50 (SUDHL5 [5]; [10]): 6.23e-06 M
EC50 (SUDHL5 [6]): > 33 µM
IC50 (MCL-1): 0.0484 µM
Structure (SMILES): O=C(O)c1c(CCCOc2cccc3ccccc23)c2cccc3c2n1CCCCOCc1nn2c(c1-3)COCC2 (single isomer, unassigned) [Example 251, 1-[3-(naphthalen-1-yloxy)propyl]-4,5,6,7,12,13-hexahydro-9H,15H-[1,4]oxazino[4″,3″:1′,5]pyrazolo[4′,3′:9,10][1,6]oxazacycloundecino[8,7,6-hi]indole-2-carboxylic acid-N-ethylethanamine Salt]
IC50 (SUDHL5 [1]; [15]): > 3.3e-05 M
IC50 (SUDHL10 [3]; [9]): > 3.3e-05 M

IC50 (A2780; Homo sapiens, A2780, 72 h): > 3.3e-05 M
IC50 (SUDHL10 [2]; 72 h incubation): 1.71e-05 M
EC50 (SUDHL10 [4]): > 33 µM
IC50 (SUDHL5 [5]; 72 h incubation): 1.61e-05 M
EC50 (SUDHL5 [6]): > 33 µM
IC50 (MCL-1): 0.0424 µM
Structure (SMILES): COCc1c2c(nn1C)COCCCCn1c(C(=O)O)c(CCCOc3cccc4ccccc34)c3cccc-2c31 (single isomer, unassigned; enantiomer 1) [Example 100, 3-(methoxymethyl)-2-methyl-7-[3-(naphthalen-1-yloxy)propyl]-2,10,11,12,13,15-hexahydropyrazolo[4′,3′:9,10][1,6]oxazacycloundecino[8,7,6-hi]indole-8-carboxylic acid-N-ethylethanamine Salt (Enantiomer 1)]
IC50 (SUDHL5 [1]; [15]): > 3.3e-05 M
IC50 (SUDHL10 [3]; [16]): > 3.3e-05 M

IC50 (A2780; Homo sapiens, A2780, 72 h): > 3.3e-05 M
IC50 (SUDHL10 [2]; [8]): 1.36e-05 M
EC50 (SUDHL10 [4]; Homo sapiens, SU-DHL10, 3 h): > 33 µM
IC50 (SUDHL5 [5]; [10]): 9.95e-06 M
EC50 (SUDHL5 [6]; Homo sapiens, SU-DHL-5, 3 h): 12.8 µM
IC50 (MCL-1): 0.014 µM
Structure (SMILES): Cn1nc(CC(F)(F)F)c2c1COCCCCn1c(C(=O)O)c(CCCOc3cccc4ccccc34)c3cccc-2c31 (racemic) [Example 219, (rac)-1-methyl-7-[3-(naphthalen-1-yloxy)propyl]-3-(2,2,2-trifluoroethyl)-1,10,11,12,13,15-hexahydropyrazolo[4′,3′:9,10][1,6]oxazacycloundecino[8,7,6-hi]indole-8-carboxylic Acid]
IC50 (SUDHL5 [1]; [7]): 9.71e-06 M
IC50 (SUDHL10 [3]; [9]): 2.47e-05 M
